Measurements: patent US10226471B2, “Modified-release dosage forms of 5-HT2C agonists useful for weight management” (Arena Pharmaceuticals, Inc., priority 2010, dated 2019)

Experiment: Dynamic moisture-sorption (DMS)
Type: physicochemical
Conditions: for hygroscopicity by DMS: isotherm 25° C.
Description: Dynamic moisture-sorption (DMS) studies were conducted using a dynamic moisture-sorption analyzer, VTI Corporation, SGA-100, equipment #0228. Samples were prepared for DMS analysis by placing 5 mg to 20 mg of a sample in a tared sample holder. The sample was placed on the hang-down wire of the VTI balance. A drying step was run, typically at 40° C. and 0.5-1% RH for 1-2 h. The isotherm temperature is 25° C. Defined % RH holds typically ranged from 10% RH to 90% RH or 95% RH, with intervals of 10 to 20% RH. A % weight change smaller than 0.010% over a specified number of minutes (typically 10-20), or up to 2 h, whichever occurs first, is required before continuing to the next % RH hold. The water content of the sample equilibrated as described above was determined at each % RH hold.

[1] = out to and including the 90% RH hold at 25° C.

SMILES | hygroscopicity by DMS | DMS weight gain at 90% RH [1] | DMS weight gain at 90% RH (out to and including the 90% RH hold at 25° C., Form I) | hygroscopicity by DMS (listed as Compound 1 Hydrochloride Salt Hemihydrate, Form III) | water adsorbed in DMS [1]
C[C@H]1CNCCc2ccc(Cl)cc21.C[C@H]1CNCCc2ccc(Cl)cc21.O=S(=O)(O)c1cccc2c(S(=O)(=O)O)cccc12 [Compound 1 heminapadisilate salt] | non-hygroscopic | about 0.68% | FIG. 31: ~0.68% weight gain at about 90% RH | – | –
C[C@H]1CNCCc2ccc(Cl)cc21.C[C@H]1CNCCc2ccc(Cl)cc21.Cl.Cl.O | substantially non-hygroscopic | – | – | FIG. 4: non-hygroscopic | less than 0.5 wt %
